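Grown in 96-well plates, cells were treated for 48 hours with each compound at five concentrations. Insufficient inhibition: endpoint recorded as highest concentration tested. Abbreviation: GI50, concentration required for 50% inhibition of growth. TGI is the concentration that stops growth completely.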
What was measured:
Assay in all cases: NCI tumour cell line growth inhibition, 48 h
SNB-19 CNS = system: SNB-19 CNS
NCI-H23 lung = system: NCI-H23 lung
HCT-116 colon = system: HCT-116 colon
OVCAR-3 ovarian = system: OVCAR-3 ovarian
SR leukemia = system: SR leukemia
UO-31 renal = system: UO-31 renal
OVCAR-5 ovarian = system: OVCAR-5 ovarian
HS 578T breast = system: HS 578T breast
NCI-H460 lung = system: NCI-H460 lung
HOP-92 NSCLC = system: HOP-92 NSCLC
RXF 393 renal = system: RXF 393 renal
NCI-H226 lung = system: NCI-H226 lung
A549 NSCLC = system: A549 NSCLC
DU-145 prostate = system: DU-145 prostate
T-47D breast = system: T-47D breast
A498 renal = system: A498 renal
MDA-MB-231 breast = system: MDA-MB-231 breast
NCI/ADR-RES ovarian = system: NCI/ADR-RES ovarian
HCC-2998 colon = system: HCC-2998 colon
LOX IMVI melanoma = system: LOX IMVI melanoma
K-562 leukemia = system: K-562 leukemia
SN12C renal = system: SN12C renal
HCT-15 colon = system: HCT-15 colon
IGROV1 ovarian = system: IGROV1 ovarian
SF-539 CNS = system: SF-539 CNS
SK-MEL-2 melanoma = system: SK-MEL-2 melanoma
HL-60(TB) leukemia = system: HL-60(TB) leukemia
NCI-H522 lung = system: NCI-H522 lung
TK-10 renal = system: TK-10 renal
OVCAR-8 ovarian = system: OVCAR-8 ovarian

`O=C1CCC(N2Cc3cc(CC(=O)Nc4ccc(N5CCCCC5)cc4)ccc3C2=O)C(=O)N1` (configuration not stated) was tested, and the GI50 (SNB-19 CNS) was 0.0594 µM, the TGI (SNB-19 CNS) was over 100 µM and the GI50 (NCI-H23 lung) was over 100 µM. For the same compound, the TGI (NCI-H23 lung) was over 100 µM, the GI50 (HCT-116 colon) was over 100 µM and the TGI (HCT-116 colon) was over 100 µM. For the same compound, the GI50 (OVCAR-3 ovarian) was 23.2 µM, the TGI (OVCAR-3 ovarian) was over 100 µM and the GI50 (SR leukemia) was over 100 µM. For the same compound, the TGI (SR leukemia) was over 100 µM, the GI50 (UO-31 renal) was 0.0782 µM and the TGI (UO-31 renal) was over 100 µM. It also gave a GI50 (OVCAR-5 ovarian) of 0.24 µM, a TGI (OVCAR-5 ovarian) of over 100 µM and a GI50 (HS 578T breast) of under 0.0166 µM. The TGI (HS 578T breast) was over 100 µM, the GI50 (NCI-H460 lung) was over 100 µM and the TGI (NCI-H460 lung) was over 100 µM. It also gave a GI50 (HOP-92 NSCLC) of under 0.01 µM, a TGI (HOP-92 NSCLC) of over 100 µM and a GI50 (RXF 393 renal) of 9.66 µM. The TGI (RXF 393 renal) was over 100 µM, the GI50 (NCI-H226 lung) was 0.0398 µM and the TGI (NCI-H226 lung) was 23.3 µM. The GI50 (A549 NSCLC) was 24.2 µM, the TGI (A549 NSCLC) was over 100 µM and the GI50 (DU-145 prostate) was over 81.6 µM. The TGI (DU-145 prostate) was over 100 µM, the GI50 (T-47D breast) was under 0.01 µM and the TGI (T-47D breast) was over 100 µM. It also gave a GI50 (A498 renal) of 0.164 µM, a TGI (A498 renal) of over 85.2 µM and a GI50 (MDA-MB-231 breast) of under 0.01 µM. For the same compound, the GI50 (NCI/ADR-RES ovarian) was 4.34 µM, the TGI (NCI/ADR-RES ovarian) was over 100 µM and the GI50 (HCC-2998 colon) was 0.0174 µM. It also gave a TGI (HCC-2998 colon) of over 100 µM, a GI50 (LOX IMVI melanoma) of over 100 µM and a TGI (LOX IMVI melanoma) of over 100 µM. It also gave a GI50 (K-562 leukemia) of over 56.1 µM, a TGI (K-562 leukemia) of over 100 µM and a GI50 (SN12C renal) of 0.632 µM. The TGI (SN12C renal) was over 90.8 µM, the GI50 (HCT-15 colon) was 0.0368 µM and the TGI (HCT-15 colon) was over 100 µM. The GI50 (IGROV1 ovarian) was under 0.0104 µM, the TGI (IGROV1 ovarian) was over 100 µM and the GI50 (SF-539 CNS) was 25.1 µM. The TGI (SF-539 CNS) was over 100 µM, the GI50 (SK-MEL-2 melanoma) was 2.16 µM and the TGI (SK-MEL-2 melanoma) was over 100 µM. For the same compound, the GI50 (HL-60(TB) leukemia) was under 0.01 µM, the GI50 (NCI-H522 lung) was over 72.9 µM and the TGI (NCI-H522 lung) was over 100 µM. It also gave a GI50 (TK-10 renal) of 1.58 µM, a TGI (TK-10 renal) of over 100 µM and a GI50 (OVCAR-8 ovarian) of under 0.01 µM.

— PubChem BioAssay (NCI)
